Laboratory results: article PMC7031696 (Cell chemical biology, 2019)
Read-outs that look alike come from different tables or passages of the source.

Tests used:
[1] = test system: Plasmodium falciparum 3D7-A10 parasites; assay: Stage specificity assay (8-h exposure of synchronized stages, IC50^8h); type: cell-based; conditions: for IC50: Plasmodium falciparum
[2] = test system: 3D7-MR4 trophozoite parasite-infected RBCs; assay: Metabolomic profiling (hydrophilic metabolite changes, UHPLC-MS); type: cell-based, Plasmodium falciparum
[3] = test system: asynchronous 3D7-A10 parasite cultures; assay: Standard 72-h exposure asexual blood stage susceptibility assay (IC50^72h); type: cell-based, Plasmodium falciparum; conditions: Plasmodium falciparum, 3D7, 72 h, read-out: Overall (72hr assay) Mean IC50 (IC50^72h)

## CNc1nc(NCCCN(C)C)c2sc(-c3cccc(C(F)(F)F)c3)cc2n1 [MMV668311]
[1]; 3D7-A10
  Ratio lowest IC50 8hr/IC50 72hr: 1.1
[1]; 3D7, read-out: Early rings Mean IC50 (IC50^8h), 8-h exposure 0–8 hr, 3D7-A10, survival at 60 h
  IC50: 0.14 µM
[1]; 3D7, read-out: Early trophozoites Mean IC50 (IC50^8h), 8-h exposure 16–24 hr, 3D7-A10, survival at 60 h
  IC50: 0.0689 µM
[1]; 3D7, read-out: Late rings Mean IC50 (IC50^8h), 8-h exposure 8–16 hr, 3D7-A10, survival at 60 h
  IC50: 0.0977 µM
[1]; 3D7, read-out: Late trophozoites Mean IC50 (IC50^8h), 8-h exposure 24–32 hr, 3D7-A10, survival at 60 h
  IC50: 0.122 µM
[1]; 3D7, read-out: Schizonts Mean IC50 (IC50^8h), 8-h exposure 32–40 hr, 3D7-A10, survival at 60 h
  IC50: 0.382 µM
[1]; period when the parasite was most susceptible (lowest IC50^8h)
  Stage of peak activity (Figure 6): rings and trophozoites
[2]; 10 × IC50^72h, 2.5 hr, trophozoites
  changes within the set of metabolites detected (low fold change group): did not induce major changes
[2]; metabolite 3-phosphoglycerate, log2 fold change
  Log2(fold changes) 3-phosphoglycerate: 0.1799
[2]; metabolite 4-Pyridoxic acid, log2 fold change
  Log2(fold changes) 4-Pyridoxic acid: 0.0000
[2]; metabolite 4-aminobutyrate, log2 fold change
  Log2(fold changes) 4-aminobutyrate: 0.0013
[2]; metabolite 4-phosphopantetheine, log2 fold change
  Log2(fold changes) 4-phosphopantetheine: 0.0000
[2]; metabolite 4-phosphopantothenate, log2 fold change
  Log2(fold changes) 4-phosphopantothenate: 0.0507
[2]; metabolite 5-aminopentanoic acid, log2 fold change
  Log2(fold changes) 5-aminopentanoic acid: 0.0000
[2]; metabolite 5-methyl-THF, log2 fold change
  Log2(fold changes) 5-methyl-THF: 0.0000
[2]; metabolite 5-phosphoribosyl-1-pyrophosphate, log2 fold change
  Log2(fold changes) 5-phosphoribosyl-1-pyrophosphate: -0.0449
[2]; metabolite 6-phospho-D-gluconate, log2 fold change
  Log2(fold changes) 6-phospho-D-gluconate: 0.0744
[2]; metabolite HVDD
  Log2(fold change) HVDD: 0.6397
[2]; metabolite Hydroxyisocaproic acid
  Log2(fold change) Hydroxyisocaproic acid: 0.0000
[2]; metabolite IDP
  Log2(fold change) IDP: 0.0000
[2]; metabolite IMP
  Log2(fold change) IMP: 0.0136
[2]; metabolite Inositol
  Log2(fold change) Inositol: 0.0000
[2]; metabolite Isopentyl-PP
  Log2(fold change) Isopentyl-PP: 0.0000
[2]; metabolite L-arginino-succinate
  Log2(fold change) L-arginino-succinate: 0.0000
[2]; metabolite LD
  Log2(fold change) LD: 0.0000
[2]; metabolite Myristoyl/tetradecanoyl-CoA
  Log2(fold change) Myristoyl/tetradecanoyl-CoA: 0.0000
[2]; metabolite N-Acetyl-L-alanine
  Log2(fold change) N-Acetyl-L-alanine: 0.2894
[2]; metabolite N-acetyl-L-ornithine
  Log2(fold change) N-acetyl-L-ornithine: 0.9240
[2]; metabolite N-acetyl-glucosamine-1/6-phosphate
  Log2(fold change) N-acetyl-glucosamine-1/6-phosphate: -0.0813
[2]; metabolite N-acetyl-glutamate
  Log2(fold change) N-acetyl-glutamate: 0.1520
[2]; metabolite N-acetyl-glutamine
  Log2(fold change) N-acetyl-glutamine: 0.0000
[2]; metabolite N-carbamoyl-L-aspartate
  Log2(fold change) N-carbamoyl-L-aspartate: 0.0640
[2]; metabolite NAD+
  Log2(fold change) NAD+: 0.0000
[2]; metabolite NADH
  Log2(fold change) NADH: 0.1408
[2]; metabolite NADP+
  Log2(fold change) NADP+: -0.0507
[2]; metabolite NADPH
  Log2(fold change) NADPH: 0.0063
[2]; metabolite O-acetyl-L-serine
  Log2(fold change) O-acetyl-L-serine: 0.0000
[2]; metabolite Octoluse 8/1P
  Log2(fold change) Octoluse 8/1P: 0.0000
[2]; metabolite Octoluse Bisphosphate
  Log2(fold change) Octoluse Bisphosphate: -0.0578
[2]; metabolite PD
  Log2(fold change) PD: -0.3993
[2]; metabolite PE
  Log2(fold change) PE: 0.0346
[2]; metabolite PEE
  Log2(fold change) PEE: 0.4823
[2]; metabolite PEEK
  Log2(fold change) PEEK: 0.0000
[2]; metabolite PVNF
  Log2(fold change) PVNF: 0.0144
[2]; metabolite Pyroglutamic acid
  Log2(fold change) Pyroglutamic acid: 0.0000
[2]; metabolite Pyrophosphate
  Log2(fold change) Pyrophosphate: 0.0000
[2]; metabolite Ribose-5-phosphate
  Log2(fold change) Ribose-5-phosphate: -0.1895
[2]; metabolite S-adenosyl-L-homocysteine
  Log2(fold change) S-adenosyl-L-homocysteine: -0.2447
[2]; metabolite S-adenosyl-L-methioninamine
  Log2(fold change) S-adenosyl-L-methioninamine: 0.0000
[2]; metabolite S-adenosyl-L-methionine
  Log2(fold change) S-adenosyl-L-methionine: 0.0000
[2]; metabolite S-methyl-5'-thioadenosine
  Log2(fold change) S-methyl-5'-thioadenosine: 0.0000
[2]; metabolite SD
  Log2(fold change) SD: 0.2373
[2]; metabolite SDL
  Log2(fold change) SDL: 0.0000
[2]; metabolite SID
  Log2(fold change) SID: 0.1033
[2]; metabolite Sedoheptulose bisphosphate
  Log2(fold change) Sedoheptulose bisphosphate: 0.1946
[2]; metabolite Thiamine pyrophosphate
  Log2(fold change) Thiamine pyrophosphate: 0.0000
[2]; metabolite UDP-D-glucose, log2 fold change
  Log2(fold changes) UDP-D-glucose: 0.0458
[2]; metabolite UDP-D-glucuronate, log2 fold change
  Log2(fold changes) UDP-D-glucuronate: -0.0320
[2]; metabolite UDP-N-acetyl-glucosamine, log2 fold change
  Log2(fold changes) UDP-N-acetyl-glucosamine: -0.0391
[2]; metabolite UDP, log2 fold change
  Log2(fold changes) UDP: -0.7320
[2]; metabolite UMP, log2 fold change
  Log2(fold changes) UMP: -0.3054
[2]; metabolite UTP, log2 fold change
  Log2(fold changes) UTP: 0.0564
[2]; metabolite hydroxyphenylpyruvate
  Log2(fold change) hydroxyphenylpyruvate: 0.0000
[2]; metabolite hydroxyproline/Aminolevulinate
  Log2(fold change) hydroxyproline/Aminolevulinate: 0.0878
[2]; metabolite hypoxanthine
  Log2(fold change) hypoxanthine: 0.2077
[2]; metabolite indole
  Log2(fold change) indole: 0.0000
[2]; metabolite inosine
  Log2(fold change) inosine: 0.0666
[2]; metabolite isoleucine
  Log2(fold change) isoleucine: 0.1965
[2]; metabolite lactate
  Log2(fold change) lactate: 0.0645
[2]; metabolite leucine
  Log2(fold change) leucine: 0.2550
[2]; metabolite lysine
  Log2(fold change) lysine: 0.0000
[2]; metabolite malate
  Log2(fold change) malate: 0.0044
[2]; metabolite maleic acid
  Log2(fold change) maleic acid: -0.0062
[2]; metabolite methionine
  Log2(fold change) methionine: 0.4374
[2]; metabolite myo-inositol
  Log2(fold change) myo-inositol: 0.0000
[2]; metabolite nicotinamide mononucleotide
  Log2(fold change) nicotinamide mononucleotide: 0.0000
[2]; metabolite nicotinate
  Log2(fold change) nicotinate: 0.1094
[2]; metabolite ornithine
  Log2(fold change) ornithine: 0.0000
[2]; metabolite orotate
  Log2(fold change) orotate: -0.2365
[2]; metabolite orotidine-5'-phosphate
  Log2(fold change) orotidine-5'-phosphate: -0.1452
[2]; metabolite oxaloacetate
  Log2(fold change) oxaloacetate: 0.0000
[2]; metabolite p-aminobenzoate
  Log2(fold change) p-aminobenzoate: 0.0000
[2]; metabolite p-hydroxybenzoate
  Log2(fold change) p-hydroxybenzoate: 0.0000
[2]; metabolite pantothenate
  Log2(fold change) pantothenate: -0.0310
[2]; metabolite phenylalanine
  Log2(fold change) phenylalanine: 0.2649
[2]; metabolite phenylpyruvate
  Log2(fold change) phenylpyruvate: 0.0000
[2]; metabolite phosphoenolpyruvate
  Log2(fold change) phosphoenolpyruvate: 0.2026
[2]; metabolite prephenate
  Log2(fold change) prephenate: 0.0000
[2]; metabolite proline
  Log2(fold change) proline: 0.1500
[2]; metabolite pyridoxine
  Log2(fold change) pyridoxine: 0.2387
[2]; metabolite pyruvate
  Log2(fold change) pyruvate: 0.0542
[2]; metabolite riboflavin
  Log2(fold change) riboflavin: 0.0000
[2]; metabolite ribose
  Log2(fold change) ribose: 0.4509
[2]; metabolite ribose-phosphate
  Log2(fold change) ribose-phosphate: -0.2314
[2]; metabolite ribulose-5-phosphate
  Log2(fold change) ribulose-5-phosphate: -0.1585
[2]; metabolite serine
  Log2(fold change) serine: 0.1402
[2]; metabolite sn-glycerol-3-phosphate
  Log2(fold change) sn-glycerol-3-phosphate: 0.1282
[2]; metabolite succinate/Methylmalonic acid
  Log2(fold change) succinate/Methylmalonic acid: 0.1707
[2]; metabolite succinyl-CoA/methylmalonyl-CoA
  Log2(fold change) succinyl-CoA/methylmalonyl-CoA: 0.2947
[2]; metabolite taurine
  Log2(fold change) taurine: 0.0000
[2]; metabolite thiamine
  Log2(fold change) thiamine: 0.0000
[2]; metabolite threonine/homoserine
  Log2(fold change) threonine/homoserine: 0.3600
[2]; metabolite thymidine
  Log2(fold change) thymidine: 0.0000
[2]; metabolite thymine, log2 fold change
  Log2(fold changes) thymine: 0.0000
[2]; metabolite trehalose-6-Phosphate, log2 fold change
  Log2(fold changes) trehalose-6-Phosphate: 0.0000
[2]; metabolite tryptophan, log2 fold change
  Log2(fold changes) tryptophan: 0.2172
[2]; metabolite tyrosine, log2 fold change
  Log2(fold changes) tyrosine: 0.2350
[2]; metabolite uridine, log2 fold change
  Log2(fold changes) uridine: 0.0000
[3]
  IC50: 0.0635 µM
